Laboratory results: the NIST ThermoML archive (doi:10.1021/acs.jced.6b00354)

Experiment: mn = molality of the nth substance listed, in mol/kg
Conditions: 100 kPa, Liquid, Alternating current cell with electrodes

CCn1cc[n+](C)c1.F[B-](F)(F)F [1-ethyl-3-methylimidazolium tetrafluoroborate] + CC(=O)N(C)C
electrical conductivity [S/m]
Conditions | 283.15 K | 288.15 K | 293.15 K | 298.15 K | 303.15 K | 308.15 K | 313.15 K | 318.15 K
m1 = 0.0005629 | 0.0031908 | 0.0034405 | 0.0036939 | 0.0039526 | 0.0042191 | 0.004484 | 0.0047434 | 0.0050185
m1 = 0.0006895 | 0.0038906 | 0.004193 | 0.0045017 | 0.0048205 | 0.0051443 | 0.0054656 | 0.0057804 | 0.0061132
m1 = 0.000982 | 0.0054941 | 0.0059172 | 0.0063518 | 0.0067988 | 0.0072509 | 0.0077078 | 0.0081485 | 0.0086157
m1 = 0.001939 | 0.010589 | 0.011412 | 0.012243 | 0.013099 | 0.013967 | 0.014834 | 0.015676 | 0.016565
m1 = 0.002956 | 0.015824 | 0.017057 | 0.018294 | 0.019571 | 0.020868 | 0.022135 | 0.023398 | 0.024707
m1 = 0.004046 | 0.021327 | 0.022927 | 0.024608 | 0.026319 | 0.028044 | 0.029762 | 0.031425 | 0.033169
m1 = 0.005688 | 0.029289 | 0.031559 | 0.033817 | 0.036147 | 0.038528 | 0.040878 | 0.043126 | 0.045508
m1 = 0.007809 | 0.039246 | 0.042233 | 0.045277 | 0.048414 | 0.051576 | 0.054665 | 0.057654 | 0.060821
m1 = 0.009857 | 0.048544 | 0.052266 | 0.056056 | 0.059913 | 0.063775 | 0.067588 | 0.071261 | 0.075126
m1 = 0.01192 | 0.057623 | 0.062014 | 0.06648 | 0.071 | 0.075636 | 0.08016 | 0.08449 | 0.089017
m1 = 0.01392 | 0.066221 | 0.071259 | 0.076376 | 0.081634 | 0.08688 | 0.09207 | 0.097012 | 0.10224
m1 = 0.01584 | 0.074143 | 0.079848 | 0.085601 | 0.091493 | 0.097323 | 0.10312 | 0.10873 | 0.11459

CC(=O)N(C)C [N,N-dimethylethanamide] + CCCCn1cc[n+](C)c1.F[B-](F)(F)F
electrical conductivity [S/m]
Conditions | 283.15 K | 288.15 K | 293.15 K | 298.15 K | 303.15 K | 308.15 K | 313.15 K | 318.15 K
m2 = 0.0003956 | 0.0021612 | 0.0023283 | 0.0025019 | 0.0026803 | 0.0028647 | 0.0030385 | 0.00322 | 0.0034051
m2 = 0.000671 | 0.0036275 | 0.0039047 | 0.004196 | 0.0044945 | 0.0047984 | 0.0050953 | 0.0053975 | 0.0057039
m2 = 0.0009718 | 0.0051999 | 0.0056027 | 0.0060224 | 0.0064451 | 0.0068768 | 0.0073024 | 0.0077338 | 0.0081707
m2 = 0.001959 | 0.010227 | 0.011022 | 0.011831 | 0.012666 | 0.013508 | 0.014339 | 0.015175 | 0.01603
m2 = 0.002976 | 0.01525 | 0.016416 | 0.017623 | 0.018852 | 0.020112 | 0.021302 | 0.022571 | 0.023828
m2 = 0.003778 | 0.019105 | 0.020563 | 0.022088 | 0.023628 | 0.025189 | 0.026664 | 0.028258 | 0.029817
m2 = 0.005993 | 0.02947 | 0.03171 | 0.034016 | 0.036401 | 0.038756 | 0.041015 | 0.043439 | 0.045784
m2 = 0.007976 | 0.03841 | 0.041353 | 0.044368 | 0.047396 | 0.050472 | 0.053564 | 0.056503 | 0.059519
m2 = 0.009999 | 0.047279 | 0.050928 | 0.054557 | 0.058325 | 0.062033 | 0.065747 | 0.069408 | 0.073087
m2 = 0.01203 | 0.055972 | 0.060177 | 0.064588 | 0.069017 | 0.073419 | 0.077654 | 0.082086 | 0.086346
m2 = 0.01408 | 0.064541 | 0.069536 | 0.074489 | 0.079576 | 0.084557 | 0.089517 | 0.094529 | 0.099432
m2 = 0.01598 | 0.072339 | 0.07784 | 0.083519 | 0.089184 | 0.094781 | 0.10031 | 0.10588 | 0.1113
